Where two headings read alike, the source gives them in different places.
Test: Pharmacokinetic study of 157 (and metabolite endothal) in SD rats, iv and po; plasma, liver, brain
Type: in vivo
Details: for AUC(0-inf) / AUC / Cmax / MRT last / half-life / concentration at 0.25 h / concentration at 1 h: 1.5 mg/kg; for AUC: read-out: AUC; for MRT last: read-out: MRT (0-t)
Description: The blood, liver and brain tissue samples were collected at predetermined times from rats. […] Compound were diluted shortly before use in 4% sodium bicarbonate for sterile injection (this is the standard pediatric solution of NaHCO3 with a pH of about 8.5).
Compound 153 was freshly prepared by diluting the drugs shortly before use in 4% sodium bicarbonate for sterile injection (this is the standard pediatric solution of NaHCO3 with a pH of about 8.5). The final concentrations of 153 solutions were 0.25 mg/mL. The 153 solutions were administered via iv or po route at dose volume of 5 ml/kg according to the latest body weight. Compound 157 was freshly prepared by diluting the drugs shortly before use in 4% sodium bicarbonate for sterile injection (this is the standard pediatric solution of NaHCO3 with a pH of about 8.5). The final concentrations of […] solutions were 0.3 mg/mL. The 157 solutions were administered via iv or po route at dose volume of 5 ml/kg according to the latest body weight.
Twelve (12) female SD rats per group were dosed by iv with 153 or 157. The rats were fasted overnight prior to dosing, with free access to water. Foods were withheld for 2 hours post-dose. Blood, liver and brain tissue samples in two animals each group were collected at each time point, within 10% of the scheduled time for each time point. Two extra animals were used for analytic method development.
Blood (>0.3 mL) were collected via aorta abdominalis in anaesthetic animals into tubes containing heparin at 15 min, 1, 2, 6, 10 and 24 hours after iv administration. Liver and brain tissues were collected immediately after animal death. The liver and brain tissues were excised and rinsed with cold saline to avoid blood residual. Upon collection, each sample was placed on ice and the blood samples were subsequently centrifuged (4° C., 11000 rpm, 5 min) to separate plasma. The obtained plasma, liver and brain tissue samples were stored at −70° C. until LC-MS/MS analysis.
Two (2) female SD rats per group were dosed by po with 153 or 157. The rats were fasted overnight prior to dosing, with free access to water. Foods were withheld for 2 hours post-dose. Blood samples (>0.3 mL) were collected via aorta abdominalis in anaesthetic animals into tubes containing heparin at 30 min, 1, 2, 6, 10 and 24 hours after po administration.
To each sample, 30 μL IS-D (for blank samples, 20 μL acetonitrile:water (1:1) was added) and 300 μl acetonitrile was added. The sample mixture was vortexed for approximately 3 min. After centrifugation at 10000 rpm for 5 min at 4° C., 100 μL of the upper layer was transferred to a new tube and added 200 μL 0.4% formic acid in water (pH6.0). The mixture was vortexed for approximately 3 min before injected onto the LC/MS/MS system for analysis.
On the day of the assay, the frozen liver and brain samples were thawed unassisted at room temperature. An about 200 mg weighed sample of each thawed tissue was placed into a plastic tube with water (0.6 mL) to facilitate homogenization. Tissue processing was conducted using a homogenizer for approximately 1 min, 100 μl homogenate was transferred into a fresh Eppendorf tube. To each tube, 50 μL IS-D was added and mixed. Then 500 μl acetonitrile was added and the sample mixture was vortexed for approximately 3 min. After centrifugation at 10000 rpm for 5 min at 4° C., 100 μL of the upper layer was transferred to a new tube and evaporate the supernatant to dryness at 35° C. Reconstitute the residue with 200 μL of 0.4% formic acid in water (pH 6.0), and vortex for 3 min, submit for LC-MS/MS analysis.
Frozen unknown plasma samples were completely thawed at room temperature and vortexed thoroughly. With a pipette, 50 μL of plasma was transferred into a 2.0 mL Eppendorf tube. 50 μL of 0.1N HCl and 800 μL ethyl acetate were added into each sample. The sample mixture was vortexed for approximately 3 min.

[1] = female, SD (Sprague-Dawley), rat, in vivo, iv, 157 in plasma, IV 1.5 mg/kg, Mean
[2] = female, SD (Sprague-Dawley), rat, in vivo, iv, 157 in plasma, IV 1.5 mg/kg, rat 1
[3] = female, SD (Sprague-Dawley), rat, in vivo, iv, 157 in plasma, IV 1.5 mg/kg, rat 2
[4] = female, SD (Sprague-Dawley), rat, in vivo, po, 157 in plasma, PO 1.5 mg/kg, Mean
[5] = female, SD (Sprague-Dawley), rat, in vivo, po, 157 in plasma, PO 1.5 mg/kg, rat 1
[6] = female, SD, rat, in vivo, iv, iv 1.5 mg/kg, Mean, read-out: 157 brain concentration
[7] = female, SD, rat, in vivo, iv, iv 1.5 mg/kg, Mean, read-out: 157 liver concentration
[8] = female, SD, rat, in vivo, iv, iv 1.5 mg/kg, Rat 1, read-out: 157 brain concentration
[9] = female, SD, rat, in vivo, iv, iv 1.5 mg/kg, Rat 2, read-out: 157 brain concentration

## CCCCCCCOC(=O)C1C2CCC(O2)C1C(=O)N1CCN(C)CC1 (stereo not shown) [Compound 157, 3-(4-Methylpiperazine-1-carbonyl)-7-oxa-bicyclo[2,2,1]heptane-2-carboxylic acid heptyl ester]
157, PO 1.5 mg/kg vs IV 1.5 mg/kg, Mean
  F: 6.78%
157 administered to rats
  conversion to endothal in the plasma (statement): converted to endothal
157 in Brain, iv 1.5 mg/kg, Mean
  Tmax: 15 min
157 in Brain, iv 1.5 mg/kg, rat 1
  Tmax: 15 min
157 in Brain, iv 1.5 mg/kg, rat 2
  Tmax: 15 min
157 in Liver, iv 1.5 mg/kg, rat 1
  Tmax: 15 min
157 in Liver, iv 1.5 mg/kg, rat 2
  Tmax: 15 min
157 in plasma, IV 1.5 mg/kg, Mean
  Tmax: 15 min
157 in plasma, IV 1.5 mg/kg, rat 2
  Tmax: 15 min
157 in plasma, PO 1.5 mg/kg, rat 1
  Tmax: 30 min
157 iv 1.5 mg/kg
  AUClast of 157 in brain: 24.6 ng·h/g
  AUClast of 157 in liver: 152 ng·h/g
157 po 1.5 mg/kg
  oral availability of 157 (statement): poorly orally available
female, SD (Sprague-Dawley), in vivo, 157 in plasma, IV 1.5 mg/kg, rat 1, read-out: Tmax
  Tmax: 15 min
[1]
  AUC(0-inf): 47.2 ng·h/mL
  AUC: 47.2 ng·h/mL
  MRT last: 20.5 min
female, SD (Sprague-Dawley), rat, in vivo, iv, 157 in plasma, IV 1.5 mg/kg, Mean, read-out: Cmax
  Cmax: 115 ng/mL
female, SD (Sprague-Dawley), rat, in vivo, iv, 157 in plasma, IV 1.5 mg/kg, Mean, read-out: T1/2 (converted)
  half-life: 23.5 min
[2]
  AUC(0-inf): 47.1 ng·h/mL
  AUC: 47.1 ng·h/mL
  MRT last: 20 min
female, SD (Sprague-Dawley), rat, in vivo, iv, 157 in plasma, IV 1.5 mg/kg, rat 1, read-out: Cmax
  Cmax: 116 ng/mL
female, SD (Sprague-Dawley), rat, in vivo, iv, 157 in plasma, IV 1.5 mg/kg, rat 1, read-out: T1/2 (converted)
  half-life: 24.5 min
[3]
  AUC(0-inf): 47.3 ng·h/mL
  AUC: 47.3 ng·h/mL
  MRT last: 20.9 min
female, SD (Sprague-Dawley), rat, in vivo, iv, 157 in plasma, IV 1.5 mg/kg, rat 2, read-out: Cmax
  Cmax: 114 ng/mL
female, SD (Sprague-Dawley), rat, in vivo, iv, 157 in plasma, IV 1.5 mg/kg, rat 2, read-out: T1/2 (converted)
  half-life: 22.4 min
[4]
  AUC(0-inf): 3.2 ng·h/mL
  AUC: 3.2 ng·h/mL
  MRT last: 56.8 min
female, SD (Sprague-Dawley), rat, in vivo, po, 157 in plasma, PO 1.5 mg/kg, Mean, read-out: Cmax
  Cmax: 6.14 ng/mL
female, SD (Sprague-Dawley), rat, in vivo, po, 157 in plasma, PO 1.5 mg/kg, Mean, read-out: T1/2 (converted)
  half-life: 24.2 min
[5]
  AUC(0-inf): 3.4 ng·h/mL
  AUC: 3.4 ng·h/mL
  MRT last: 59.3 min
female, SD (Sprague-Dawley), rat, in vivo, po, 157 in plasma, PO 1.5 mg/kg, rat 1, read-out: Cmax
  Cmax: 5.92 ng/mL
female, SD (Sprague-Dawley), rat, in vivo, po, 157 in plasma, PO 1.5 mg/kg, rat 1, read-out: T1/2 (converted)
  half-life: 26.2 min
female, SD (Sprague-Dawley), rat, in vivo, 157 in plasma, PO 1.5 mg/kg, Mean, read-out: Tmax
  Tmax: 30 min
female, SD, rat, in vivo, iv, 157 iv 1.5 mg/kg, read-out: T1/2 of 157 in brain (converted)
  half-life: 9.72 min
female, SD, rat, in vivo, iv, 157 iv 1.5 mg/kg, read-out: T1/2 of 157 in liver (converted)
  half-life: 48.8 min
female, SD, rat, in vivo, iv, 157 iv 1.5 mg/kg, read-out: T1/2 of 157 in plasma (converted)
  half-life: 23.5 min
female, SD, rat, in vivo, iv, 157 iv 1.5 mg/kg, read-out: mean Cmax of 157 in brain
  Cmax: 60 ng/g
female, SD, rat, in vivo, iv, 157 iv 1.5 mg/kg, read-out: mean Cmax of 157 in liver
  Cmax: 297 ng/g
female, SD, rat, in vivo, iv, 157 iv 1.5 mg/kg, read-out: mean Cmax of 157 in plasma
  Cmax: 115 ng/mL
[6]
  concentration at 0.25 h: 60 ng/g
  concentration at 1 h: 2.4 ng/g
[7]
  concentration at 0.25 h: 297 ng/g
  concentration at 1 h: 23.5 ng/g
[8]
  concentration at 0.25 h: 60 ng/g
  concentration at 1 h: 1.99 ng/g
[9]
  concentration at 0.25 h: 60 ng/g
  concentration at 1 h: 2.8 ng/g
female, SD, rat, in vivo, iv, iv 1.5 mg/kg, Rat 1, read-out: 157 liver concentration
  concentration at 1 h: 29.4 ng/g

— patent US20160264593A1 (priority 2013, published 2016)
